Laboratory results reported in article PMC8906456, “Structural insights into the catalytic and inhibitory mechanisms of the flavin transferase FmnB in Listeria monocytogenes” (MedComm, 2022).

What follows are molecules tested against T1, FmnB (Listeria monocytogenes, UniProt A0A0H3GJF7) (assay: inhibition of PplA FMNylation, in-gel flavin fluorescence). Conditions: 10 uM to 4 mM inhibitor; 100 uM FAD, 50 uM PplA, 15 mM Mg2+, 16 °C; competitive.
T1 construct: gene LMRG_02181; structure covers about residues 36-357
T1 sequence (A0A0H3GJF7 20-360): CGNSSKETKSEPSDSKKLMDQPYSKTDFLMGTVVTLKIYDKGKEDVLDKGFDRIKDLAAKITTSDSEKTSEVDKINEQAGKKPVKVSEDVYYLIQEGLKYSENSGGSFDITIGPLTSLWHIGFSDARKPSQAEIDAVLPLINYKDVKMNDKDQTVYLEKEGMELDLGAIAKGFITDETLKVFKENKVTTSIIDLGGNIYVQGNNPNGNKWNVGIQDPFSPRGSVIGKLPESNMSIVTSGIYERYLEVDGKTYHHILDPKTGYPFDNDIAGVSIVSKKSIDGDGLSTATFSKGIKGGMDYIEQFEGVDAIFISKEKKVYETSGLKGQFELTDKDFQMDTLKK
Format: biochemical

| SMILES | inhibition of PplA FMNylation, in-gel flavin fluorescence |
| --- | --- |
| Nc1ncnc2c1ncn2[C@@H]1O[C@H](COP(=O)(O)OP(=O)(O)O)[C@@H](O)[C@H]1O [ADP] | ADP demonstrated a much stronger inhibitory ability against FmnB activity (Figure 4A) |
| Nc1ncnc2c1ncn2[C@@H]1O[C@H](COP(=O)(O)O)[C@@H](O)[C@H]1O [AMP] | the enzymatic assays indicated that AMP, ADP and ATP could inhibit FmnB activity |
| Nc1ncnc2c1ncn2[C@@H]1O[C@H](COP(=O)(O)OP(=O)(O)OP(=O)(O)O)[C@@H](O)[C@H]1O [ATP] | the enzymatic assays indicated that AMP, ADP and ATP could inhibit FmnB activity |
